“Also recorded” adds a separate entry of the source.
Tests used:
[1] = system: steroidogenesis acute regulatory protein (StAR); test: Immunoblot of StAR protein levels in Y1 cells; assay type: cell-based, mouse; settings: 1 μM procaine, 48 hour treatment, 3 hour dbcAMP
Method: At the end of the treatment protocol described above, Y1 cells at 90% confluency were washed 2 times with PBS, sonicated 15 seconds in extraction buffer and centrifuged at 18,500 g for 15 minutes at 4° C. Pellets were resuspended in ice-cold lysis buffer (1% Nonidet 40 in extraction buffer), sonicated briefly, and incubated on ice for 1 hour. After centrifugation (22,500 g×30 min, 4° C.), the supernatant was mixed in sample buffer 6× (0.27 M SDS, 0.6 M dithiothreitol, 0.18 M bromphenol blue in 7 ml of 0.5 M Tris-HCl, pH 6.8, and 3 ml glycerol) and boiled for 5 minutes. Proteins were subjected to SDS-PAGE (4-20% gradient SDS polyacrylamide gel) and electrophoretically transferred onto nitrocellulose membranes. The transblot sheets were blocked with 5% non fat dry milk in 25 mM Tris HCl, pH 7.5, 150 mM NaCl, and 0.1% Tween 20 overnight at 4° C. Membranes were then incubated with appropriately diluted primary antibodies 1:800 for anti-P-450SCC (Research Diagnostics Inc. Flanders, N.J.) and 1:200 for anti-StAR (Amri et al., 1996), and the reaction was detected by a peroxidase-conjugated secondary antibody (Santa Cruz Biotechnology, Santa Cruz, Calif.) and enhanced chemiluminescence (Amersham Life, Arlington Heights, Ill.). The densities of the appropriate bands were determined using the OptiQuant Acquisition & Analysis software (Packard BioScience).

[2] = target: T1, cytochrome P-450SCC (Mus musculus, UniProt Q9QZ82); test: 22R-hydroxycholesterol-induced 20-OH progesterone formation (P-450SCC activity) in Y1 cells; assay type: cell-based
T1 construct: endogenous in cells; host or cells: Y1 mouse adrenal tumor cells
T1 sequence (Q9QZ82 37-526): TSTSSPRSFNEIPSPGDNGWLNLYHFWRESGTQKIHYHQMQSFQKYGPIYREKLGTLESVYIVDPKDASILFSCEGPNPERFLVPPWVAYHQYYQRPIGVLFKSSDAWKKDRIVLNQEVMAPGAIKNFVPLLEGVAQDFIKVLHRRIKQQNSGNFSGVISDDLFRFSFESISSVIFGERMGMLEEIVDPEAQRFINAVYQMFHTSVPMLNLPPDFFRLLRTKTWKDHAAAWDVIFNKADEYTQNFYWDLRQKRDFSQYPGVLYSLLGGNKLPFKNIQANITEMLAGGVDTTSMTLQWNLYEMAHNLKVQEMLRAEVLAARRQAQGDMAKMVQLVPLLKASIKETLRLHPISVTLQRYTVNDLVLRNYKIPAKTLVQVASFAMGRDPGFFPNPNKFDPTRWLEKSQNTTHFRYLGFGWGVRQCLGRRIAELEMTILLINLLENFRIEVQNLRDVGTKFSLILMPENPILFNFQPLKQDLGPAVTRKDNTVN
Method: Culture media were then changed and cells were stimulated with 1 mM dbcAMP and the treatment for 24 to 48 hours. […] The synthesis of 20-OH progesterone and progesterone in Y1 and MA-10 cell media respectively were measured by RIA (Brown et al., 1992). H295R human adrenal tumor cells were seeded in 48-well plates at 10^5 cells/well and incubated for 24 hours. […] At the end of the incubation time period, cells were treated with 1 mM dbcAMP for 48 hours. Cortisol levels in the media were determined by radioimmunoassay as previously described (Amri et al., 1996).

CCN(CC)CCOC(=O)c1ccc(N)cc1 [procaine]
levels of the mature 30 kDa StAR protein [1]: did not affect | levels of the mature 30 kDa StAR protein ([1]; listed as Procaine): had no effect | effect of 22R-hydroxycholesterol on steroidogenesis [2]: did not inhibit; also recorded: did not affect

Source: patent US20060194815A1, “Methods and compositions for modulating serum cortisol levels” (priority 2003, published 2006)
